The text below walks through data of patent US8586369B2, “Ion channel-forming peptides” (The Regents of the University of California, priority 2007, dated 2013).

Where only a bound is given, the exact number is not on record here.

Holding throughout (assay type): biochemical
Assay [1] is described as follows: Single channel recordings of gA derivatives in planar lipid bilayers (Example 2). The conditions noted are these: 20 mM KCl. As for the experimental part:
Formation of Planar Lipid Bilayers: Planar lipid bilayers were formed by the “folding technique.” Briefly, a film (e.g., Teflon®, Eastern Scientific Inc, pore diameter 0.1-0.2 mm) that was pretreated on both sides of the pore with 2 μL of 5% (v/v) hexadecane in pentane. This film was mounted using vacuum grease (Dow Corning, High vacuum grease) to a custom-made Teflon chamber separating two buffer compartments each with a volume capacity of 4 mL. After addition of 1 mL of electrolyte (20 mM KCl buffered with 0.2 mM HEPES pH 7.4 or 140 mM KCl buffered with 10 mM phosphate pH 8.0) to each compartment, lipids were spread at the air-water interface of the electrolyte solution in both compartments. Three additional milliliters of the same electrolyte solution were added to each compartment to raise the liquid level above the aperture in the Teflon film. The bilayers were formed on the pore of the Teflon film by aspirating the electrolyte solution into a 3 mL syringe, followed by dispensing the electrolyte solution back into each compartment.
Ion Channel Measurements: Single channel recordings in “voltage clamp mode” were performed using Ag/AgCl pellet electrodes (Warner Instruments) in each compartment of the bilayer setup. Data acquisition and storage was carried out using custom software in combination with an EPC-7 patch clamp amplifier from Heka (set at a gain of 10 mV pA^−1 and a filter cutoff frequency of 3 kHz). The data acquisition board for the amplifier was set to a sampling frequency of 15 kHz. All current traces shown in the figures were further filtered using a digital Gaussian low-pass filter with a cutoff frequency of 4 Hz.
The analysis of single channel current traces was performed by computing histograms of the currents from the original current versus time traces with ClampFit 9.2 software from Axon Instruments. From these histograms, main current values were extracted by fitting a Gaussian function to the peaks in the histograms. […]

A short description of assay [2]: Monitoring a 1,3-dipolar cycloaddition (click) reaction in situ using single ion channel recordings. The note with it: 40 pM gramicidazide, 2 mM propargyl sulfonate, 0.5 mM CuSO4. On the procedure: Gramicidazide was added to a final concentration of 40 pM to both 4 mL chambers of a stirred lipid bilayer setup comprised of zwitterionic 1,2-diphytanoyl-sn-glycero-3-phosphatidylcholine (DiPhyPC) lipids that separated two compartments containing 20 mM KCl, 0.2 mM HEPES buffer, 2 mM sodium ascorbate (as a reducing agent for Cu^II), and 2 mM propargyl sulfonate. The final pH of this solution was 6.9. CuSO4 was added (to give a final concentration of Cu^II of 0.5 mM) to both chambers of the bilayer setup and recorded the single ion channel activity over time. […] The cycloaddition reaction was monitored at a constant applied potential of +75 mV. […]
Monitoring a 1,3-dipolar cycloaddition (“click”) reaction in situ using single ion channel recordings: About 3 μl, (from a 100 ng mL^−1 solution in ethanol) of gramicidazide was added (to afford a final concentration of 40 pM of gramicidazide) to each compartment of a bilayer setup containing as electrolyte 20 mM KCl and 0.2 mM HEPES buffer. […] This strategy made it possible to observe measured currents that would frequently return to baseline (i.e., current steps separated by no observed channel events). Consequently, a small number of events over time were observed, and thus analyzed the data over a window of time rather than at specific time points. […] For the 4-15 minute time window, we measured 26 total channel events. […]

Assay [3] can be described thus: Single-channel conductance of homodimeric gA pores in planar lipid bilayers made from DiPhyPC (Example 1). The note with it: for Single-channel conductance γ: HEPES pH 7.4, DiPhyPC bilayers, slope of I-V curves; for γ-ratio to gA-gA: pH 7.4, DiPhyPC. As for the experimental part: Formation of planar lipid bilayers: We formed most planar lipid bilayers with the “folding technique.” We used a Teflon film (Eastern Scientific Inc, pore diameter 0.18-0.25 mm) was pretreated on each side with 2.5 μL of 5% hexadecane in pentane and air dried. This film was mounted using vacuum grease (Dow Corning, High vacuum grease) to a custom made Teflon chamber separating two buffer compartments each with a volume capacity of 4 mL. After adding 1 mL of electrolyte (0.01 M to 1.00 M KCl buffered with HEPES pH 7.4) to each compartment, lipids were spread from a solution in pentane onto the surface of the electrolyte solutions (specifically, 4-6 μL from 25 mg mL-l solution DiPhyPC or from 6.25 mg mL-l each of 50% DOPS and 50% POPE or from 25 mg mL-l DODAP mixed with 25 mg mL-l DiPhyPC in a 1:9 ratio. Three additional milliliters of electrolyte solution were added to each side of the chamber to raise the liquid levels above the aperture. We formed the bilayers from apposition of two monolayers of lipids using the method described by Montal et al. (Proc. Natl. Acad. Sci. U.S.A. 1972, 69, 3561-3566). Briefly, bilayers were obtained by consecutively raising the liquid level in each compartment until the pore was completely covered by electrolyte. If at this point the pore was not closed by a lipid bilayer, then the liquid level in one or both compartments was lowered below the pore level by aspirating electrolyte into a 3 mL syringe, followed by raising the electrolyte solution again.
Planar lipid bilayers were also made with the “painting technique”. We pretreated each side of a pore in a bilayer cup (Warner Instruments, Delrin perfusion cup, volume 1 mL, pore diameter 250 μm) with ˜2 μL of a 25 mg mL-l solution of DiPhyPC in hexane. After adding recording buffer (0.01 M KCl to 1.00 M KCl buffered with HEPES, pH=7.4) to both compartments of the bilayer setup, we “painted” a solution of 20 mg mL-l DiPhyPC in n-decane over the pore by using a paint brush with a fine tip. We followed the thinning of the decane droplet to form a planar bilayer by monitoring the capacitance of the bilayer. After verifying that bilayers were stable for several minutes (in the range of ±200 mV applied voltage) and that the capacitances were above 80-90 pF, gA was added (4-8 μL from 1 ng mL-l in ethanol), derivatives 1 or 2 (2-10 μL from 100 ng mL-l in ethanol), or derivative 3 (4-10 μL from 100 ng mL-l in ethanol) directly to the bilayer chambers.
Ion channel measurements: We performed single channel recordings in “voltage clamp mode” using Ag/AgCl electrodes (Warner Instruments) in each compartment of the bilayer chambers. Data acquisition and storage was carried out using custom software in combination with either an EPC-7 patch clamp amplifier from List Medical Electronic (set at a gain of 100 mV pA-1 and a filter cutoff frequency of 3 kHz) or a Geneclamp 500 amplifier from Axon Instruments (with a CV-5B 100GU headstage, set at a gain of 100 mV pA-1 and filter cutoff frequency of 1 kHz). We used the EPC-7 amplifier for most folded bilayers and the Geneclamp 500 amplifier for most painted bilayers. The data acquisition boards for both amplifiers were set to a sampling frequency of 15 kHz. All current traces shown in the figures were further filtered using a digital Gaussian low-pass filter with a cutoff frequency of 30 Hz. The current traces we used to generate all data that was recorded at applied potentials s 50 mV were filtered at 10 Hz.
We performed the analysis of the single channel current traces by computing histograms of the currents from the original current-time traces with ClampFit 9.2 software from Axon Instruments. From these histograms we extracted the main current values by fitting a Gaussian function to the peaks in the histograms. […] Single channel conductances reported in this paper always refer to the main conductance state (i.e. to the dominant peaks in the current histograms).

Assay in assay [4]: as above
The note with it: 20 mM KCl plus 10 mM KOH.

Assay [5] in a line: Single-channel conductance in negatively charged planar bilayers (50% POPE, 50% DOPS). The note with it: 0.01 M KCl, 0.1 mM HEPES pH 7.4. An excerpt:
The data acquisition boards for both amplifiers were set to a sampling frequency of 15 kHz.

Assay [6] is described as follows: Single-channel conductance in bilayers with positively-charged headgroups (10% DODAP, 90% DiPhyPC). The note with it: 20 mM KCl. As for the experimental part: The conductance of gA-gA and 2-2 in lipid bilayers that contained 10% of a lipid with positively-charged headgroups (here, 1,2-dioleoyl-3-(dimethylamino)propane, DODAP, and 90% DiPhyPC) was measured.
Formation of planar lipid bilayers: We formed most planar lipid bilayers with the “folding technique.” We used a Teflon film (Eastern Scientific Inc, pore diameter 0.18-0.25 mm) was pretreated on each side with 2.5 μL of 5% hexadecane in pentane and air dried. This film was mounted using vacuum grease (Dow Corning, High vacuum grease) to a custom made Teflon chamber separating two buffer compartments each with a volume capacity of 4 mL. […]
Ion channel measurements: We performed single channel recordings in “voltage clamp mode” using Ag/AgCl electrodes (Warner Instruments) in each compartment of the bilayer chambers. […] The current traces we used to generate all data that was recorded at applied potentials s 50 mV were filtered at 10 Hz. […]

Regarding gramicidazide, the “single channel conductance (γ)” value in assay [1] (0.2 mM HEPES, 2 mM sodium ascorbate, 2 mM propargyl sulfonate, 0.5 mM CuSO4, pH 6.9, pure samples) came out at 3.3±0.1 pS. Moreover, in assay [1] (applied potential 100 mV, 0.2 mM HEPES pH 7.4), the “ion channel activity in planar lipid bilayers” value is recorded as “retained well-defined ion channel activity”. Also, the “time after which the click reaction was complete” value in assay [2] is ~90 min.

For taurinyl gramicidate [compound 2], the “Single-channel conductance γ” value in assay [3] (0.01 M KCl, homodimers) worked out at 4.3 ± 0.3 pS; in assay [3] (0.10 M KCl, homodimers) it was 12.6 ± 0.4 pS; in assay [3] (1.00 M KCl, homodimers), 21.5 ± 0.3 pS. For the same substance, the “ratio between the conductance of 2-2 and gA-gA” value in assay [3] (0.02 M KCl, 100 mV applied potential) is reported as 1.4; in assay [3] (0.02 M KCl, 200 mV applied potential) it was 1.5. In addition, the “conductance compared with gA-gA at pH 7.4” value in assay [3] (20 mM KCl, DiPhyPC) is reported as “significantly larger”. Also, the “γ at pH 7.4” value in assay [3] (20 mM KCl, DiPhyPC bilayers, homodimers) was determined as 5.8 ± 0.1 pS. Further, in assay [3] (0.02 M KCl, DiPhyPC, transmembrane potentials above 100 mV), the “overall conductance of heterodimeric pore of gA and 2, with 2 at the entrance of the pore” value is given as “approximately the same as that of homodimeric pores from 2”. The “γ-ratio to gA-gA” value in assay [3] (0.10 M KCl) was found to be 1.2; in assay [3] (1.00 M KCl) it was 1.1. Besides, the “current as share of the estimated maximum, mass transport limited current (3 pA)” value in assay [3] (200 mV applied potential, 0.02 M KCl) is listed as ~30%. For the same substance, the “difference in single channel conductance compared to gA” value in assay [3] (approximately 1.00 M KCl) is < 10%. In addition, the “conductance compared with gA-gA at pH 12” value in assay [4] (DiPhyPC) was “significantly larger”. The “γ at pH 12” value in assay [4] (DiPhyPC bilayers, homodimers) turned out to be 9.8 ± 0.2 pS. The “Single-channel conductance γ in negatively charged bilayers” value in assay [5] was found to be 24.4±0.5 pS. Further, in assay [6], the “increase of the relative ratio of conductance of 2-2 to gA-gA versus purely zwitterionic lipids” value is on record as 10%.
